Source: patent US20210363254A1, “PHARMACEUTICAL COMBINATIONS” (Novartis AG, priority 2018, published 2021)
Like-named read-outs stand apart in the source and are kept apart here.

COc1ncc(-c2nc3c(n2C(C)C)[C@H](c2ccc(Cl)cc2)N(c2cc(Cl)cn(C)c2=O)C3=O)c(OC)n1 [HDM201, (S)-5-(5-Chloro-1-methyl-2-oxo-1,2-dihydro-pyridin-3-yl)-6-(4-chloro-phenyl)-2-(2,4-dimethoxy-pyrimidin-5-yl)-1-isopropyl-5,6-dihydro-1H-pyrrolo[3,4-d]imidazol-4-one]
12 n (%): Nausea, All Grades (1B all subjects, N=20)
3 (100) n (%): Total, All Grades (1B 200 mg, N=3)
0 n (%): Hyperkalaemia, Grade 3/4 (1B 200 mg, N=3) | Hypocalcaemia, All Grades (1B 200 mg, N=3) | Hypocalcaemia, Grade 3/4 (1B 200 mg, N=3) | Influenza Like Illness, All Grades (1B 200 mg, N=3) | Influenza Like Illness, Grade 3/4 (1B 200 mg, N=3) | Lethargy, All Grades (1B 200 mg, N=3) | Lethargy, Grade 3/4 (1B 200 mg, N=3) | Leukopenia, All Grades (1B 200 mg, N=3) | Leukopenia, Grade 3/4 (1B 200 mg, N=3) | Lymphopenia, All Grades (1B 200 mg, N=3) | Lymphopenia, Grade 3/4 (1B 200 mg, N=3) | Monocytosis, All Grades (1B 200 mg, N=3) | Monocytosis, Grade 3/4 (1B 200 mg, N=3) | Musculoskeletal Pain, All Grades (1B 200 mg, N=3) | Musculoskeletal Pain, Grade 3/4 (1B 200 mg, N=3) | Myalgia, All Grades (1B 200 mg, N=3) | Myalgia, Grade 3/4 (1B 200 mg, N=3) | Nausea, Grade 3/4 (1B 200 mg, N=3) | Neuralgia, All Grades (1B 200 mg, N=3) | Neuralgia, Grade 3/4 (1B 200 mg, N=3) | Neutropenia, All Grades (1B 200 mg, N=3) | Neutropenia, Grade 3/4 (1B 200 mg, N=3) | Neutrophil Count Decreased, All Grades (1B 200 mg, N=3) | Neutrophil Count Decreased, Grade 3/4 (1B 200 mg, N=3) | Oedema, Grade 3/4 (1B 200 mg, N=3) | Oral Candidiasis, All Grades (1B 200 mg, N=3) | Oral Candidiasis, Grade 3/4 (1B 200 mg, N=3) | Platelet Count Decreased, All Grades (1B 200 mg, N=3) | Platelet Count Decreased, Grade 3/4 (1B 200 mg, N=3) | Pruritus, All Grades (1B 200 mg, N=3) | Pruritus, Grade 3/4 (1B 200 mg, N=3) | Thrombocytopenia, All Grades (1B 200 mg, N=3) | Thrombocytopenia, Grade 3/4 (1B 200 mg, N=3) | Vomiting, All Grades (1B 200 mg, N=3) | Vomiting, Grade 3/4 (1B 200 mg, N=3) | Weight Decreased, All Grades (1B 200 mg, N=3) | Weight Decreased, Grade 3/4 (1B 200 mg, N=3) | White Blood Cell Count Decreased, All Grades (1B 200 mg, N=3) | White Blood Cell Count Decreased, Grade 3/4 (1B 200 mg, N=3) | Abdominal Pain, Grade 3/4 (1B all subjects, N=20) | Alanine Aminotransferase Increased, Grade 3/4 (1B all subjects, N=20) | Alopecia, Grade 3/4 (1B all subjects, N=20) | Amylase Increased, Grade 3/4 (1B all subjects, N=20) | Anaemia, Grade 3/4 (1B all subjects, N=20) | Asthenia, Grade 3/4 (1B all subjects, N=20) | Blood Bilirubin Increased, Grade 3/4 (1B all subjects, N=20) | Blood Creatinine Increased, Grade 3/4 (1B all subjects, N=20) | Decreased Appetite, Grade 3/4 (1B all subjects, N=20) | Dehydration, Grade 3/4 (1B all subjects, N=20) | Diarrhoea, Grade 3/4 (1B all subjects, N=20) | Dry Skin, Grade 3/4 (1B all subjects, N=20) | Dysgeusia, Grade 3/4 (1B all subjects, N=20) | Eye Pain, Grade 3/4 (1B all subjects, N=20) | Folliculitis, Grade 3/4 (1B all subjects, N=20) | Gamma-Glutamyltransferase Increased, Grade 3/4 (1B all subjects, N=20) | Headache, Grade 3/4 (1B all subjects, N=20) | Hyperkalaemia, Grade 3/4 (1B all subjects, N=20) | Hypocalcaemia, Grade 3/4 (1B all subjects, N=20) | Influenza Like Illness, Grade 3/4 (1B all subjects, N=20) | Lethargy, Grade 3/4 (1B all subjects, N=20) | Monocytosis, Grade 3/4 (1B all subjects, N=20) | Musculoskeletal Pain, Grade 3/4 (1B all subjects, N=20) | Myalgia, Grade 3/4 (1B all subjects, N=20)
5 n (%): Anaemia, All Grades (1B all subjects, N=20) | Diarrhoea, All Grades (1B all subjects, N=20)
1 (33.3) n (%): Lipase Increased, All Grades (1B 200 mg, N=3) | Lipase Increased, Grade 3/4 (1B 200 mg, N=3) | Nausea, All Grades (1B 200 mg, N=3) | Oedema, All Grades (1B 200 mg, N=3) | Total, Grade 3/4 (1B 200 mg, N=3)
3 n (%): Abdominal Pain, All Grades (1B all subjects, N=20) | Lipase Increased, Grade 3/4 (1B all subjects, N=20)
1 n (%): Alanine Aminotransferase Increased, All Grades (1B all subjects, N=20) | Alopecia, All Grades (1B all subjects, N=20) | Amylase Increased, All Grades (1B all subjects, N=20) | Blood Bilirubin Increased, All Grades (1B all subjects, N=20) | Blood Creatine Phosphokinase Increased, Grade 3/4 (1B all subjects, N=20) | Dehydration, All Grades (1B all subjects, N=20) | Dry Skin, All Grades (1B all subjects, N=20) | Dysgeusia, All Grades (1B all subjects, N=20) | Eye Pain, All Grades (1B all subjects, N=20) | Fatigue, Grade 3/4 (1B all subjects, N=20) | Folliculitis, All Grades (1B all subjects, N=20) | Gamma-Glutamyltransferase Increased, All Grades (1B all subjects, N=20) | Headache, All Grades (1B all subjects, N=20) | Hyperkalaemia, All Grades (1B all subjects, N=20) | Hypocalcaemia, All Grades (1B all subjects, N=20) | Influenza Like Illness, All Grades (1B all subjects, N=20) | Lethargy, All Grades (1B all subjects, N=20) | Leukopenia, Grade 3/4 (1B all subjects, N=20) | Lymphopenia, Grade 3/4 (1B all subjects, N=20) | Monocytosis, All Grades (1B all subjects, N=20) | Musculoskeletal Pain, All Grades (1B all subjects, N=20) | Myalgia, All Grades (1B all subjects, N=20)
2 n (%): Asthenia, All Grades (1B all subjects, N=20) | Blood Creatine Phosphokinase Increased, All Grades (1B all subjects, N=20) | Blood Creatinine Increased, All Grades (1B all subjects, N=20) | Leukopenia, All Grades (1B all subjects, N=20) | Lymphopenia, All Grades (1B all subjects, N=20)
4 n (%): Decreased Appetite, All Grades (1B all subjects, N=20) | Fatigue, All Grades (1B all subjects, N=20) | Lipase Increased, All Grades (1B all subjects, N=20)
